Values quoted from earlier work in patent US7160555B2, “Immediate release medicinal compositions for oral use” (Kissei Pharmaceutical Co., Ltd., priority 1999, dated 2007).

Tested on: blood sugar
Conditions: Japanese Patent Laid-Open No. 356459/1992

(2S)-2-benzyl-3-(cis-hexahydro-2-iso-indolinylcarbonyl)propionic acid
lowering action of blood sugar: remarkable lowering action of blood sugar
